Laboratory results: PubChem BioAssay (NCI)
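Grown in 96-well plates, cells were treated for 48 hours with each compound at five concentrations. Insufficient inhibition: endpoint recorded as highest concentration tested. TGI: total growth inhibition.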

How the values were obtained:
Test in all cases: growth of human tumour cells (NCI), 48 h
RPMI-8226 leukemia = system: RPMI-8226 leukemia
SF-295 CNS = system: SF-295 CNS
CCRF-CEM leukemia = system: CCRF-CEM leukemia
EKVX NSCLC = system: EKVX NSCLC
NCI-H522 lung = system: NCI-H522 lung
MDA-MB-231 breast = system: MDA-MB-231 breast
LOX IMVI melanoma = system: LOX IMVI melanoma
SNB-19 CNS = system: SNB-19 CNS
UACC-257 melanoma = system: UACC-257 melanoma
UO-31 renal = system: UO-31 renal
K-562 leukemia = system: K-562 leukemia
IGROV1 ovarian = system: IGROV1 ovarian
SF-539 CNS = system: SF-539 CNS
MDA-MB-435 = system: MDA-MB-435
A549 NSCLC = system: A549 NSCLC
COLO 205 colon = system: COLO 205 colon
HOP-92 NSCLC = system: HOP-92 NSCLC
SK-OV-3 ovarian = system: SK-OV-3 ovarian
RXF 393 renal = system: RXF 393 renal
T-47D breast = system: T-47D breast
SR leukemia = system: SR leukemia
U251 CNS = system: U251 CNS
SK-MEL-28 melanoma = system: SK-MEL-28 melanoma
NCI-H460 lung = system: NCI-H460 lung
SNB-75 CNS = system: SNB-75 CNS
M14 melanoma = system: M14 melanoma
OVCAR-8 ovarian = system: OVCAR-8 ovarian
BT-549 breast = system: BT-549 breast
HOP-62 NSCLC = system: HOP-62 NSCLC
UACC-62 melanoma = system: UACC-62 melanoma
OVCAR-5 ovarian = system: OVCAR-5 ovarian
TK-10 renal = system: TK-10 renal
DU-145 prostate = system: DU-145 prostate
KM12 colon = system: KM12 colon
MDA-N = system: MDA-N
SW-620 colon = system: SW-620 colon
HT29 colon = system: HT29 colon
MCF7 breast = system: MCF7 breast
PC-3 prostate = system: PC-3 prostate
SN12C renal = system: SN12C renal
OVCAR-4 ovarian = system: OVCAR-4 ovarian
SK-MEL-5 melanoma = system: SK-MEL-5 melanoma
SF-268 CNS = system: SF-268 CNS
HCC-2998 colon = system: HCC-2998 colon
OVCAR-3 ovarian = system: OVCAR-3 ovarian
MOLT-4 leukemia = system: MOLT-4 leukemia
786-0 renal = system: 786-0 renal
HCT-116 colon = system: HCT-116 colon
HCT-15 colon = system: HCT-15 colon
NCI-H23 lung = system: NCI-H23 lung
HL-60(TB) leukemia = system: HL-60(TB) leukemia

Measured: TGI

O=C1CSC(c2c[nH]c3ccccc23)N1c1cccc([N+](=O)[O-])c1 (stereo unspecified)
> 100 µM: RPMI-8226 leukemia | SF-295 CNS | CCRF-CEM leukemia | EKVX NSCLC | NCI-H522 lung | MDA-MB-231 breast | LOX IMVI melanoma | SNB-19 CNS | UACC-257 melanoma | UO-31 renal | K-562 leukemia | IGROV1 ovarian | SF-539 CNS | MDA-MB-435 | A549 NSCLC | COLO 205 colon | HOP-92 NSCLC | SK-OV-3 ovarian | RXF 393 renal | T-47D breast | SR leukemia | U251 CNS | SK-MEL-28 melanoma | NCI-H460 lung | SNB-75 CNS | M14 melanoma | OVCAR-8 ovarian | BT-549 breast | HOP-62 NSCLC | UACC-62 melanoma | OVCAR-5 ovarian | TK-10 renal | DU-145 prostate | KM12 colon | MDA-N | SW-620 colon | HT29 colon | MCF7 breast | PC-3 prostate | SN12C renal | OVCAR-4 ovarian | SK-MEL-5 melanoma | SF-268 CNS | HCC-2998 colon | OVCAR-3 ovarian | MOLT-4 leukemia | 786-0 renal | HCT-116 colon | HCT-15 colon | NCI-H23 lung | HL-60(TB) leukemia
